For two molecules, IC50 and inhibition results are on record in article PMC7460560, “Discovery of Novel Agents on Spindle Assembly Checkpoint to Sensitize Vinorelbine-Induced Mitotic Cell Death against Human Non-Small Cell Lung Cancers” (International Journal of Molecular Sciences, 2020).

For experiment [1], the target named is T1, PDE5A1 (phosphodiesterase type 5) (Homo sapiens, UniProt O76074).
T1 construct: gene PDE5A
The experiment is described as follows: PDE5A1 assay kit (BPS Bioscience), fluorescence polarization with FAM-cyclic-3', […]'-GMP. The class given is biochemical. In general terms: In fluorescence polarisation assays a small probe gives low polarisation when free and higher when bound to something large.

The next experiment has as its target T2, tubulin (Sus scrofa, UniProt P02550+P02554).
T2 construct: with alpha-tubulin
The experiment is described as follows: in vitro pure tubulin polymerization assay (Cytoskeleton kit, […] nm), […] inhibition at […]. The experiment is classed as biochemical. Conditions: read-out: % inhibition at 1000 nM.

T2 sequence (P02554 whole entry): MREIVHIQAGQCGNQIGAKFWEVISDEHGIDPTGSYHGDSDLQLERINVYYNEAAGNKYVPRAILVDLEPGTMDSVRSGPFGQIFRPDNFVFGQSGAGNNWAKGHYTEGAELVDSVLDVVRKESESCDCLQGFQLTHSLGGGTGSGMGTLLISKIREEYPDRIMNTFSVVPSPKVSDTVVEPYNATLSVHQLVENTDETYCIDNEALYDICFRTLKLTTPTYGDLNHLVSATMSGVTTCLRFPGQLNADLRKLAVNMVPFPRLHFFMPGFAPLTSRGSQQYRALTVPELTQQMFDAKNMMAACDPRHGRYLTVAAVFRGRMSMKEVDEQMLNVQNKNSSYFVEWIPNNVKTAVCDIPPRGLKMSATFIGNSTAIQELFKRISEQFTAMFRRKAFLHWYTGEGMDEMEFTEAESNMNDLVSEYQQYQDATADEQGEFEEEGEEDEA
T2 sequence (P02550 whole entry): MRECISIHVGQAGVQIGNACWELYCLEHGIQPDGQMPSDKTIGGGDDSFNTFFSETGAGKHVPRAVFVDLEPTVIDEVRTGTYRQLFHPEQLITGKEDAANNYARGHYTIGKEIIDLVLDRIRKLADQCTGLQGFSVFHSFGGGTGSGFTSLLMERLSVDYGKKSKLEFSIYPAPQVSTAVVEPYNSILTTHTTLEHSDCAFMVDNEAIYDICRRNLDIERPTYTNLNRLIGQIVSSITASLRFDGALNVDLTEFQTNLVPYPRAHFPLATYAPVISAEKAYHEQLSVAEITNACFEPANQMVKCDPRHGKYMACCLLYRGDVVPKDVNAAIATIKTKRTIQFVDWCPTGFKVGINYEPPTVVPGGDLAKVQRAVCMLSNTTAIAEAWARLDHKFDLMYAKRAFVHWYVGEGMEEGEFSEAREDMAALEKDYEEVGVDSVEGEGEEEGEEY

The term IC50 denotes the concentration needed to halve the response being measured. Read a high IC50 as weaker potency. `CCCn1nnc2c(OC)nc(-c3cc(S(=O)(=O)N4CCN(C)CC4)ccc3OC)nc21` [YL-9]: the IC50 in experiment [1] was 632 nM. Usually inhibition stands for the percentage by which the read-out fell short of the control. For `CCC1=C[C@@H]2CN(C1)Cc1c([nH]c3ccccc13)[C@@](C(=O)OC)(c1cc3c(cc1OC)N(C)[C@H]1[C@@](O)(C(=O)OC)[C@H](OC(C)=O)[C@]4(CC)C=CCN5CC[C@]31[C@@H]54)C2` [vinorelbine], the inhibition at 1 µM at tubulin stood at 16.7%.
